The text below walks through data of patent US6602511B2, “Microemulsions for use as vehicles for administration of active compounds” (AstraZeneca AB, priority 1995, dated 2003).

A short description of data set [1]: Solubility of sparingly soluble substances in water, microemulsion and PEG 400 (50%).
Protocol: (§1) Different amounts of the substances were added to 1 ml samples of the microemulsion placed in glass vials. The samples were rotated for 48 hours to allow a complete wetting of the solid substance. The samples were than kept in a waterbath at 25° C. for at least one week before inspection. The samples were inspected for any solid substance or phase separation and the maximum solubility was defined as the range between the last sample in each series without any trace of solids or phase separation, and the first sample with remaining and undissolved substance or a phase separation.
The next data set can be described thus: physchem. The following applies: aqueous with cosolvent or surfactant or cyclodextrin.

In brackets after ≈: the same amount, converted by molar mass.

Protocol for physchem: as §1

In turn, `CCOc1c(C)cc2c(c1C)[C@@]1(C)Cc3ccccc3[C@@]1(C)N2` (relative stereo) [The indeno indole, cis-4b,5,9b,10-tetrahydro-4b,7,9,9b-tetramethyl-8-ethoxy-indeno(1,2-b)indole] registered a solubility in data set [1] (PEG 400 (50%) solution, aqueous with cosolvent or surfactant or cyclodextrin) of 200 µg/mL (≈ 651 µM). This compound also showed a Sol. in water in data set [1] (in water) of 2.0 mg/L. Also, the “sol. in microemulsion 1a” value in data set [1] (microemulsion 1a, 25° C., at least one week, range between last clear and first undissolved sample) lay within 40000 to 50000 mg/L. Also, the “sol. in microemulsion 1b” value in data set [1] (microemulsion 1b, 25° C., at least one week, range between last clear and first undissolved sample) lay within 60000 to 75000 mg/L. Also, the “amount possible to administrate using the microemulsion compared to a 50% solution PEG 400” value in data set [1] (microemulsion vs 50% solution PEG 400) is given as “over 100 times”.
Compound `CCOC(=O)C1=C(C)NC(C)=C(C(=O)OC)C1c1cccc(Cl)c1Cl` (stereo not drawn) [Felodipine, ethyl methyl 4-(2,3-dichlorophenyl)-1,4-dihydro-2,6-dimethyl-3,5-pyridinedicarboxylate] yielded a solubility in “physchem” of 700 µg/mL (≈ 1820 µM).
